Measurements published in the NIST ThermoML archive (doi:10.1021/je900387e).

Assay: xn = mol fraction of the nth substance listed
Conditions: Liquid, Pycnometric method

CCCCCl [1-chlorobutane] + O=C=O
mass density [kg/m3]
Conditions | 308.2 K | 313.1 K
6210 kPa, x1 = 0.1488 | 843 | –
6560 kPa, x1 = 0.0981 | 819 | –
6560 kPa, x1 = 0.1488 | 848 | –
6760 kPa, x1 = 0.1488 | – | 825
6790 kPa, x1 = 0.0981 | 825 | –
6850 kPa, x1 = 0.1488 | 853 | –
6910 kPa, x1 = 0.0744 | 786 | –
6980 kPa, x1 = 0.0981 | 827 | –
6980 kPa, x1 = 0.1488 | – | 828
7080 kPa, x1 = 0.0744 | 791 | –
7130 kPa, x1 = 0.0981 | – | 791
7140 kPa, x1 = 0.0981 | 831 | –
7240 kPa, x1 = 0.0483 | 742 | –
7250 kPa, x1 = 0.1488 | 858 | –
7310 kPa, x1 = 0.0981 | – | 795
7310 kPa, x1 = 0.1488 | – | 832
7320 kPa, x1 = 0.0981 | 834 | –
7330 kPa, x1 = 0.0483 | 747 | –
7430 kPa, x1 = 0.0483 | 752 | –
7460 kPa, x1 = 0.0744 | – | 754
7470 kPa, x1 = 0.0744 | 801 | –
7500 kPa, x1 = 0.0981 | 837 | –
7530 kPa, x1 = 0.0483 | 757 | –
7570 kPa, x1 = 0.0981 | – | 802
7640 kPa, x1 = 0.0243 | 670 | –
7640 kPa, x1 = 0.0744 | – | 759
7660 kPa, x1 = 0.0483 | 761 | –
7670 kPa, x1 = 0.0243 | 674 | –
7700 kPa, x1 = 0.0744 | 807 | –
7710 kPa, x1 = 0.0243 | 678 | –
7730 kPa, x1 = 0.0981 | 840 | –
7740 kPa, x1 = 0.0243 | 682 | –
7740 kPa, x1 = 0.1488 | 863 | 837
7770 kPa, x1 = 0.0744 | – | 764
7780 kPa, x1 = 0.0243 | 686 | –
7790 kPa, x1 = 0.0483 | 766 | –
7820 kPa, x1 = 0.0243 | 690 | –
7860 kPa, x1 = 0.0243 | 694 | –
7860 kPa, x1 = 0.0981 | – | 807
7890 kPa, x1 = 0.0483 | – | 693
7940 kPa, x1 = 0.0243 | 701 | –
7940 kPa, x1 = 0.0483 | 770 | 697
7940 kPa, x1 = 0.0744 | – | 769
7940 kPa, x1 = 0.0981 | 843 | –
7950 kPa, x1 = 0.0744 | 812 | –
8000 kPa, x1 = 0.0483 | – | 701
8030 kPa, x1 = 0.0243 | 707 | –
8070 kPa, x1 = 0.0744 | 814 | –
8090 kPa, x1 = 0.0744 | – | 773
8100 kPa, x1 = 0.0483 | – | 707
8110 kPa, x1 = 0.0483 | 776 | –
8120 kPa, x1 = 0.0243 | 713 | –
8170 kPa, x1 = 0.0981 | 846 | –
8180 kPa, x1 = 0.0981 | – | 813
8190 kPa, x1 = 0.1488 | – | 841
8210 kPa, x1 = 0.0483 | – | 713
8220 kPa, x1 = 0.0243 | – | 545
8230 kPa, x1 = 0.0243 | 720 | 549
8230 kPa, x1 = 0.0744 | 817 | –
8250 kPa, x1 = 0.0243 | – | 555
8270 kPa, x1 = 0.0744 | – | 778
8280 kPa, x1 = 0.0243 | – | 563
8280 kPa, x1 = 0.0483 | 780 | –
8290 kPa, x1 = 0.1488 | 868 | –
8300 kPa, x1 = 0.0243 | – | 571
8330 kPa, x1 = 0.0243 | – | 580
8340 kPa, x1 = 0.0483 | – | 719
8350 kPa, x1 = 0.0243 | 727 | –
8350 kPa, x1 = 0.0744 | 820 | –
8360 kPa, x1 = 0.0243 | – | 588
8390 kPa, x1 = 0.0981 | 849 | –
8400 kPa, x1 = 0.0243 | – | 597
8450 kPa, x1 = 0.0483 | – | 725
8470 kPa, x1 = 0.0243 | – | 610
8470 kPa, x1 = 0.0483 | 785 | –
8470 kPa, x1 = 0.0744 | – | 782
8480 kPa, x1 = 0.0243 | 734 | –
8500 kPa, x1 = 0.0744 | 822 | –
8510 kPa, x1 = 0.0981 | – | 819
8550 kPa, x1 = 0.0243 | – | 623
8560 kPa, x1 = 0.0483 | 788 | –
8570 kPa, x1 = 0.0243 | 738 | –
8600 kPa, x1 = 0.0483 | – | 732
8630 kPa, x1 = 0.0981 | 852 | –
8640 kPa, x1 = 0.0744 | 825 | –
8650 kPa, x1 = 0.0243 | – | 637
8670 kPa, x1 = 0.0483 | 790 | –
8680 kPa, x1 = 0.0744 | – | 787
8760 kPa, x1 = 0.0483 | – | 738
8770 kPa, x1 = 0.0243 | – | 651
8770 kPa, x1 = 0.0483 | 793 | –
8800 kPa, x1 = 0.0243 | 748 | –
8830 kPa, x1 = 0.0744 | 828 | –
8840 kPa, x1 = 0.1488 | 873 | –
8890 kPa, x1 = 0.0483 | 795 | –
8890 kPa, x1 = 0.0981 | – | 825
8900 kPa, x1 = 0.0744 | – | 792
8900 kPa, x1 = 0.0981 | 856 | –
8910 kPa, x1 = 0.0243 | 753 | –
8910 kPa, x1 = 0.1488 | – | 849
8930 kPa, x1 = 0.0243 | – | 666
8940 kPa, x1 = 0.0483 | – | 745
8970 kPa, x1 = 0.0744 | 830 | –
9000 kPa, x1 = 0.0483 | 798 | –
9050 kPa, x1 = 0.0243 | 758 | –
9120 kPa, x1 = 0.0483 | 800 | –
9130 kPa, x1 = 0.0243 | – | 682
9150 kPa, x1 = 0.0483 | – | 751
9150 kPa, x1 = 0.0744 | – | 797
9160 kPa, x1 = 0.0744 | 833 | –
9160 kPa, x1 = 0.0981 | 859 | –
9190 kPa, x1 = 0.0243 | 763 | –
9230 kPa, x1 = 0.0483 | 803 | –
9260 kPa, x1 = 0.0981 | – | 830
9330 kPa, x1 = 0.0744 | 836 | –
9350 kPa, x1 = 0.0483 | 805 | –
9370 kPa, x1 = 0.0483 | – | 759
9390 kPa, x1 = 0.0243 | – | 698
9410 kPa, x1 = 0.0744 | – | 802
9450 kPa, x1 = 0.0981 | 862 | –
9450 kPa, x1 = 0.1488 | – | 853
9480 kPa, x1 = 0.1488 | 878 | –
9490 kPa, x1 = 0.0483 | 808 | –
9530 kPa, x1 = 0.0744 | 838 | –
9620 kPa, x1 = 0.0483 | – | 765
9640 kPa, x1 = 0.0483 | 811 | –
9670 kPa, x1 = 0.0744 | – | 807
9700 kPa, x1 = 0.0744 | 841 | –
9710 kPa, x1 = 0.0243 | – | 716
9720 kPa, x1 = 0.0981 | – | 837
9780 kPa, x1 = 0.0483 | 813 | –
9780 kPa, x1 = 0.0981 | 865 | –
9810 kPa, x1 = 0.0483 | – | 770
9910 kPa, x1 = 0.0483 | 815 | –
9940 kPa, x1 = 0.0744 | 844 | –
9960 kPa, x1 = 0.0744 | – | 812
10000 kPa, x1 = 0.0483 | – | 775
10020 kPa, x1 = 0.0243 | – | 729
10030 kPa, x1 = 0.0981 | 869 | –
10110 kPa, x1 = 0.0744 | 846 | –
10150 kPa, x1 = 0.1488 | 883 | –
10190 kPa, x1 = 0.0981 | – | 843
10220 kPa, x1 = 0.0483 | – | 780
10270 kPa, x1 = 0.1488 | – | 860
10280 kPa, x1 = 0.0243 | – | 738
10290 kPa, x1 = 0.0744 | – | 817
10380 kPa, x1 = 0.0981 | 872 | –
10460 kPa, x1 = 0.0483 | – | 785
10510 kPa, x1 = 0.0981 | 874 | –
10550 kPa, x1 = 0.0243 | – | 748
10620 kPa, x1 = 0.0744 | – | 823
10680 kPa, x1 = 0.0483 | – | 790
10690 kPa, x1 = 0.0981 | – | 849
10700 kPa, x1 = 0.0243 | – | 753
10850 kPa, x1 = 0.0243 | – | 758
10850 kPa, x1 = 0.1488 | 888 | –
10860 kPa, x1 = 0.1488 | – | 865
10950 kPa, x1 = 0.0483 | – | 795
11620 kPa, x1 = 0.1488 | 893 | –
12430 kPa, x1 = 0.1488 | 898 | –
13270 kPa, x1 = 0.1488 | 904 | –
13660 kPa, x1 = 0.1488 | 906 | –
14090 kPa, x1 = 0.1488 | 909 | –
14420 kPa, x1 = 0.1488 | 911 | –
14870 kPa, x1 = 0.1488 | 914 | –
